Each compound was assayed on HCC1599 (assay: normalised viability (% of control), CellTiter-Blue; higher = more viable cells (100 = DMSO, 0 = benzethonium chloride kill control)). Details: 1 nM; incubation time: 72 h.
Method in brief: (§1)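 Breast cancer cell lines in 20 µl suspension were seeded onto 384-well plates pre-loaded with compound dissolved in 5 µl medium, then incubated 72 h. CellTiter-Blue reagent (2.5 µl) was added for 2 h at 37 °C and fluorescence read at 560/590 nm. Each plate was normalised to vehicle (100) and a positive kill control (0), with Z'-factor quality control. The value is normalised viability at one listed concentration of the series.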
`CC1=C(/C=C/C(C)=C/C=C/C(C)=C/C(=O)O)C(C)(C)CCC1` [Tretinoin] showed a normalised viability of 99.3%. Work on `Nc1ccccc1NC(=O)c1ccc(CNC(=O)OCc2cccnc2)cc1` [Entinostat] yielded a normalised viability of 102%. For `C=CC(=O)Nc1cc2c(Nc3ccc(F)c(Cl)c3)ncnc2cc1OCCCN1CCOCC1` [Canertinib], the normalised viability was 94.8%. With `CC[C@H](Nc1ncnc2[nH]cnc12)c1nc2cccc(F)c2c(=O)n1-c1ccccc1` [CAL-101] the normalised viability was 82.4%. For `CCCCC(=O)OCC(=O)[C@]1(O)Cc2c(O)c3c(c(O)c2[C@@H](O[C@H]2C[C@H](NC(=O)C(F)(F)F)[C@H](O)[C@H](C)O2)C1)C(=O)c1c(OC)cccc1C3=O` [Valrubicin], the normalised viability was 75.7%.

What follows are compounds tested on HCC1937 in the same assay as above. Details: 0.025 nM; incubation time: 72 h.
Method in brief: as §1
For `CC(=O)Nc1cccc(-n2c(=O)n(C3CC3)c(=O)c3c(Nc4ccc(I)cc4F)n(C)c(=O)c(C)c32)c1`, the normalised viability was 93.7%.

Same assay, conditions: 0.1 nM; incubation time: 72 h
Compound `Cc1cnc(NC(=O)Nc2cc(Br)c(C)cc2OC[C@@H]2CNCCO2)cn1` has a normalised viability of 93.6%.

Same assay, conditions: 1 nM; incubation time: 72 h
Work on `COc1cc2nccc(Oc3ccc(NC(=O)Nc4cc(C)on4)c(Cl)c3)c2cc1OC` [Tivozanib] yielded a normalised viability of 92.5%. Work on `O=C(Cc1ccc(-c2ccc(OCCN3CCOCC3)cc2)cn1)NCc1ccccc1` [KX2-391] yielded a normalised viability of 93.7%. `CC1=C(/C=C/C(C)=C/C=C/C(C)=C/C(=O)O)C(C)(C)CCC1` [Tretinoin] was tested, and the normalised viability was 117%. `Nc1ccccc1NC(=O)c1ccc(CNC(=O)OCc2cccnc2)cc1` [Entinostat] gave a normalised viability of 80.4%. With `C=CC(=O)Nc1cc2c(Nc3ccc(F)c(Cl)c3)ncnc2cc1OCCCN1CCOCC1` [Canertinib] the normalised viability was 90.6%. In the case of `CC[C@H](Nc1ncnc2[nH]cnc12)c1nc2cccc(F)c2c(=O)n1-c1ccccc1` [CAL-101], the normalised viability is reported as 121%. For `CCCCC(=O)OCC(=O)[C@]1(O)Cc2c(O)c3c(c(O)c2[C@@H](O[C@H]2C[C@H](NC(=O)C(F)(F)F)[C@H](O)[C@H](C)O2)C1)C(=O)c1c(OC)cccc1C3=O` [Valrubicin], the normalised viability was 81.6%.

The compounds below were run on HDQ-P1 in the same assay as above. Details: 0.025 nM; incubation time: 72 h.
Method in brief: as §1
Work on `CC(=O)Nc1cccc(-n2c(=O)n(C3CC3)c(=O)c3c(Nc4ccc(I)cc4F)n(C)c(=O)c(C)c32)c1` yielded a normalised viability of 105%.

Same assay, conditions: 0.1 nM; incubation time: 72 h
`Cc1cnc(NC(=O)Nc2cc(Br)c(C)cc2OC[C@@H]2CNCCO2)cn1` showed a normalised viability of 84.2%.

Same assay, conditions: 1 nM; incubation time: 72 h
Work on `COc1cc2nccc(Oc3ccc(NC(=O)Nc4cc(C)on4)c(Cl)c3)c2cc1OC` [Tivozanib] yielded a normalised viability of 97.6%. `O=C(Cc1ccc(-c2ccc(OCCN3CCOCC3)cc2)cn1)NCc1ccccc1` [KX2-391] showed a normalised viability of 138%. With `CC1=C(/C=C/C(C)=C/C=C/C(C)=C/C(=O)O)C(C)(C)CCC1` [Tretinoin] the normalised viability was 114%. In the case of `Nc1ccccc1NC(=O)c1ccc(CNC(=O)OCc2cccnc2)cc1` [Entinostat], the normalised viability is reported as 113%. For `C=CC(=O)Nc1cc2c(Nc3ccc(F)c(Cl)c3)ncnc2cc1OCCCN1CCOCC1` [Canertinib], the normalised viability was 88.3%. In the case of `CC[C@H](Nc1ncnc2[nH]cnc12)c1nc2cccc(F)c2c(=O)n1-c1ccccc1` [CAL-101], the normalised viability is reported as 89.5%. Compound `CCCCC(=O)OCC(=O)[C@]1(O)Cc2c(O)c3c(c(O)c2[C@@H](O[C@H]2C[C@H](NC(=O)C(F)(F)F)[C@H](O)[C@H](C)O2)C1)C(=O)c1c(OC)cccc1C3=O` [Valrubicin] has a normalised viability of 96.8%.

Each compound was assayed on Hs578T in the same assay as above. Details: 0.025 nM; incubation time: 72 h.
Method in brief: as §1
`CC(=O)Nc1cccc(-n2c(=O)n(C3CC3)c(=O)c3c(Nc4ccc(I)cc4F)n(C)c(=O)c(C)c32)c1` gave a normalised viability of 113%.

Same assay, conditions: 0.1 nM; incubation time: 72 h
For `Cc1cnc(NC(=O)Nc2cc(Br)c(C)cc2OC[C@@H]2CNCCO2)cn1`, the normalised viability was 106%.

Same assay, conditions: 1 nM; incubation time: 72 h
In the case of `COc1cc2nccc(Oc3ccc(NC(=O)Nc4cc(C)on4)c(Cl)c3)c2cc1OC` [Tivozanib], the normalised viability is reported as 103%. In the case of `O=C(Cc1ccc(-c2ccc(OCCN3CCOCC3)cc2)cn1)NCc1ccccc1` [KX2-391], the normalised viability is reported as 130%. `CC1=C(/C=C/C(C)=C/C=C/C(C)=C/C(=O)O)C(C)(C)CCC1` [Tretinoin] showed a normalised viability of 116%. With `Nc1ccccc1NC(=O)c1ccc(CNC(=O)OCc2cccnc2)cc1` [Entinostat] the normalised viability was 118%. In the case of `C=CC(=O)Nc1cc2c(Nc3ccc(F)c(Cl)c3)ncnc2cc1OCCCN1CCOCC1` [Canertinib], the normalised viability is reported as 103%. Compound `CC[C@H](Nc1ncnc2[nH]cnc12)c1nc2cccc(F)c2c(=O)n1-c1ccccc1` [CAL-101] has a normalised viability of 118%. `CCCCC(=O)OCC(=O)[C@]1(O)Cc2c(O)c3c(c(O)c2[C@@H](O[C@H]2C[C@H](NC(=O)C(F)(F)F)[C@H](O)[C@H](C)O2)C1)C(=O)c1c(OC)cccc1C3=O` [Valrubicin] gave a normalised viability of 103%.

What follows are compounds tested on MDA-MB-231 in the same assay as above. Details: 0.025 nM; incubation time: 72 h.
Method in brief: as §1
`CC(=O)Nc1cccc(-n2c(=O)n(C3CC3)c(=O)c3c(Nc4ccc(I)cc4F)n(C)c(=O)c(C)c32)c1` was tested, and the normalised viability was 105%.

Same assay, conditions: 0.1 nM; incubation time: 72 h
`Cc1cnc(NC(=O)Nc2cc(Br)c(C)cc2OC[C@@H]2CNCCO2)cn1` showed a normalised viability of 93.3%.

Same assay, conditions: 1 nM; incubation time: 72 h
`COc1cc2nccc(Oc3ccc(NC(=O)Nc4cc(C)on4)c(Cl)c3)c2cc1OC` [Tivozanib] showed a normalised viability of 88%. `O=C(Cc1ccc(-c2ccc(OCCN3CCOCC3)cc2)cn1)NCc1ccccc1` [KX2-391] gave a normalised viability of 92.8%. `CC1=C(/C=C/C(C)=C/C=C/C(C)=C/C(=O)O)C(C)(C)CCC1` [Tretinoin] was tested, and the normalised viability was 97.2%. `Nc1ccccc1NC(=O)c1ccc(CNC(=O)OCc2cccnc2)cc1` [Entinostat] was tested, and the normalised viability was 102%. `C=CC(=O)Nc1cc2c(Nc3ccc(F)c(Cl)c3)ncnc2cc1OCCCN1CCOCC1` [Canertinib] gave a normalised viability of 98.5%. `CC[C@H](Nc1ncnc2[nH]cnc12)c1nc2cccc(F)c2c(=O)n1-c1ccccc1` [CAL-101] gave a normalised viability of 82.3%. In the case of `CCCCC(=O)OCC(=O)[C@]1(O)Cc2c(O)c3c(c(O)c2[C@@H](O[C@H]2C[C@H](NC(=O)C(F)(F)F)[C@H](O)[C@H](C)O2)C1)C(=O)c1c(OC)cccc1C3=O` [Valrubicin], the normalised viability is reported as 79.7%.

What follows are compounds tested on MDA-MB-436 in the same assay as above. Details: 0.025 nM; incubation time: 72 h.
Method in brief: as §1
`CC(=O)Nc1cccc(-n2c(=O)n(C3CC3)c(=O)c3c(Nc4ccc(I)cc4F)n(C)c(=O)c(C)c32)c1` showed a normalised viability of 101%.

Same assay, conditions: 0.1 nM; incubation time: 72 h
Work on `Cc1cnc(NC(=O)Nc2cc(Br)c(C)cc2OC[C@@H]2CNCCO2)cn1` yielded a normalised viability of 119%.

Same assay, conditions: 1 nM; incubation time: 72 h
In the case of `COc1cc2nccc(Oc3ccc(NC(=O)Nc4cc(C)on4)c(Cl)c3)c2cc1OC` [Tivozanib], the normalised viability is reported as 102%. Compound `O=C(Cc1ccc(-c2ccc(OCCN3CCOCC3)cc2)cn1)NCc1ccccc1` [KX2-391] has a normalised viability of 89%. In the case of `CC1=C(/C=C/C(C)=C/C=C/C(C)=C/C(=O)O)C(C)(C)CCC1` [Tretinoin], the normalised viability is reported as 90.4%. `Nc1ccccc1NC(=O)c1ccc(CNC(=O)OCc2cccnc2)cc1` [Entinostat] was tested, and the normalised viability was 124%. In the case of `C=CC(=O)Nc1cc2c(Nc3ccc(F)c(Cl)c3)ncnc2cc1OCCCN1CCOCC1` [Canertinib], the normalised viability is reported as 97.5%. For `CC[C@H](Nc1ncnc2[nH]cnc12)c1nc2cccc(F)c2c(=O)n1-c1ccccc1` [CAL-101], the normalised viability was 116%. `CCCCC(=O)OCC(=O)[C@]1(O)Cc2c(O)c3c(c(O)c2[C@@H](O[C@H]2C[C@H](NC(=O)C(F)(F)F)[C@H](O)[C@H](C)O2)C1)C(=O)c1c(OC)cccc1C3=O` [Valrubicin] gave a normalised viability of 106%.

The compounds below were run on MDA-MB-453 in the same assay as above. Details: 0.025 nM; incubation time: 72 h.
Method in brief: as §1
`CC(=O)Nc1cccc(-n2c(=O)n(C3CC3)c(=O)c3c(Nc4ccc(I)cc4F)n(C)c(=O)c(C)c32)c1` showed a normalised viability of 107%.

Same assay, conditions: 0.1 nM; incubation time: 72 h
With `Cc1cnc(NC(=O)Nc2cc(Br)c(C)cc2OC[C@@H]2CNCCO2)cn1` the normalised viability was 99.5%.

Same assay, conditions: 1 nM; incubation time: 72 h
`COc1cc2nccc(Oc3ccc(NC(=O)Nc4cc(C)on4)c(Cl)c3)c2cc1OC` [Tivozanib] showed a normalised viability of 97.4%. In the case of `O=C(Cc1ccc(-c2ccc(OCCN3CCOCC3)cc2)cn1)NCc1ccccc1` [KX2-391], the normalised viability is reported as 116%. `CC1=C(/C=C/C(C)=C/C=C/C(C)=C/C(=O)O)C(C)(C)CCC1` [Tretinoin] showed a normalised viability of 100%. Compound `Nc1ccccc1NC(=O)c1ccc(CNC(=O)OCc2cccnc2)cc1` [Entinostat] has a normalised viability of 113%. `C=CC(=O)Nc1cc2c(Nc3ccc(F)c(Cl)c3)ncnc2cc1OCCCN1CCOCC1` [Canertinib] gave a normalised viability of 103%. Work on `CC[C@H](Nc1ncnc2[nH]cnc12)c1nc2cccc(F)c2c(=O)n1-c1ccccc1` [CAL-101] yielded a normalised viability of 89.8%. For `CCCCC(=O)OCC(=O)[C@]1(O)Cc2c(O)c3c(c(O)c2[C@@H](O[C@H]2C[C@H](NC(=O)C(F)(F)F)[C@H](O)[C@H](C)O2)C1)C(=O)c1c(OC)cccc1C3=O` [Valrubicin], the normalised viability was 97.6%.

What follows are compounds tested on SK-BR-3 in the same assay as above. Details: 0.025 nM; incubation time: 72 h.
Method in brief: as §1
With `CC(=O)Nc1cccc(-n2c(=O)n(C3CC3)c(=O)c3c(Nc4ccc(I)cc4F)n(C)c(=O)c(C)c32)c1` the normalised viability was 135%.

Same assay, conditions: 0.1 nM; incubation time: 72 h
`Cc1cnc(NC(=O)Nc2cc(Br)c(C)cc2OC[C@@H]2CNCCO2)cn1` was tested, and the normalised viability was 91.2%.

Same assay, conditions: 1 nM; incubation time: 72 h
Work on `COc1cc2nccc(Oc3ccc(NC(=O)Nc4cc(C)on4)c(Cl)c3)c2cc1OC` [Tivozanib] yielded a normalised viability of 102%. Work on `O=C(Cc1ccc(-c2ccc(OCCN3CCOCC3)cc2)cn1)NCc1ccccc1` [KX2-391] yielded a normalised viability of 105%. `CC1=C(/C=C/C(C)=C/C=C/C(C)=C/C(=O)O)C(C)(C)CCC1` [Tretinoin] showed a normalised viability of 97.7%. Compound `Nc1ccccc1NC(=O)c1ccc(CNC(=O)OCc2cccnc2)cc1` [Entinostat] has a normalised viability of 102%. Compound `C=CC(=O)Nc1cc2c(Nc3ccc(F)c(Cl)c3)ncnc2cc1OCCCN1CCOCC1` [Canertinib] has a normalised viability of 86.2%. For `CC[C@H](Nc1ncnc2[nH]cnc12)c1nc2cccc(F)c2c(=O)n1-c1ccccc1` [CAL-101], the normalised viability was 97.4%. `CCCCC(=O)OCC(=O)[C@]1(O)Cc2c(O)c3c(c(O)c2[C@@H](O[C@H]2C[C@H](NC(=O)C(F)(F)F)[C@H](O)[C@H](C)O2)C1)C(=O)c1c(OC)cccc1C3=O` [Valrubicin] showed a normalised viability of 85.5%.

Reference: the supplement of paper PMC4862054
